Assay results published in ChEMBL document CHEMBL1201862, “PubChem BioAssay data set” (2004).
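Following 48 hours of exposure in 96-well plates, responses at five concentrations were used to interpolate endpoints linearly. GI50 = concentration required for 50% inhibition of growth.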 Activity calls are given as the source filed them. No stated cut-off is given here; in the data, active = GI50 up to about 1.1 µM and inactive = higher.

Tests used:
Experiment in all cases: NCI-60 cell line screen, 48 h
[1] = test system: SF-268
[2] = test system: LXFL 529
[3] = test system: TK-10
[4] = test system: OVCAR-3
[5] = test system: A549
[6] = test system: IGROV-1
[7] = test system: Malme-3M
[8] = test system: NCI-H226
[9] = test system: NCI-H23
[10] = test system: RXF 393
[11] = test system: HCT-15
[12] = test system: UACC-257
[13] = test system: KM12
[14] = test system: K562
[15] = test system: SN12C
[16] = test system: SK-MEL-2
[17] = test system: SK-MEL-5
[18] = test system: CCRF-CEM
[19] = test system: SK-MEL-28
[20] = test system: HL-60
[21] = test system: ACHN
[22] = test system: HT-29
[23] = test system: OVCAR-4
[24] = test system: M19-MEL
[25] = test system: OVCAR-8
[26] = test system: DMS-273
[27] = test system: SF-539
[28] = test system: HCT-116
[29] = test system: SW-620
[30] = test system: LOX IMVI
[31] = test system: UACC-62
[32] = test system: A498
[33] = test system: HOP-18
[34] = test system: NCI-H460
[35] = test system: DMS-114
[36] = test system: MOLT-4
[37] = test system: M14
[38] = test system: SF-295
[39] = test system: SNB-78
[40] = test system: SNB-75
[41] = test system: SK-OV-3
[42] = test system: OVCAR-5
[43] = test system: RPMI-8226
[44] = test system: EKVX
[45] = test system: U-251
[46] = test system: HOP-92
[47] = test system: COLO 205
[48] = test system: 786-0
[49] = test system: UO-31
[50] = test system: HCC 2998
[51] = test system: NCI-H522
[52] = test system: CAKI-1
[53] = test system: HOP-62
[54] = test system: KM-20L2
[55] = test system: SNB-19
[56] = test system: SR
[57] = test system: DLD-1

In the case of `CC1(C)OC(COP2OCCO2)[C@H](COP2OCCO2)O1` (some centres undefined), the GI50 [1] is reported as > 100 µM (inactive), the GI50 [2] is reported as > 100 µM (inactive) and the GI50 [3] is reported as > 100 µM (inactive). The GI50 [4] was > 100 µM (inactive), the GI50 [5] was > 100 µM (inactive) and the GI50 [6] was 31 µM (inactive). For the same compound, the GI50 [7] was > 100 µM (inactive), the GI50 [8] was > 100 µM (inactive) and the GI50 [9] was > 100 µM (inactive). For the same compound, the GI50 [10] was > 100 µM (inactive), the GI50 [11] was greater than 100 µM and the GI50 [12] was > 100 µM (inactive). The GI50 [13] was > 100 µM (inactive), the GI50 [14] was > 100 µM (inactive) and the GI50 [15] was > 100 µM (inactive). For the same compound, the GI50 [16] was > 100 µM (inactive), the GI50 [17] was > 100 µM (inactive) and the GI50 [18] was > 100 µM (inactive). For the same compound, the GI50 [19] was > 100 µM (inactive), the GI50 [20] was > 100 µM (inactive) and the GI50 [21] was > 100 µM (inactive). The GI50 [22] was > 100 µM (inactive), the GI50 [23] was > 100 µM (inactive) and the GI50 [24] was > 100 µM (inactive). For the same compound, the GI50 [25] was > 100 µM (inactive), the GI50 [26] was > 100 µM (inactive) and the GI50 [27] was > 100 µM (inactive). The GI50 [28] was > 100 µM (inactive), the GI50 [29] was > 100 µM (inactive) and the GI50 [30] was > 100 µM (inactive). For the same compound, the GI50 [31] was > 100 µM (inactive), the GI50 [32] was > 100 µM (inactive) and the GI50 [33] was > 100 µM (inactive). For the same compound, the GI50 [34] was > 100 µM (inactive), the GI50 [35] was > 100 µM (inactive) and the GI50 [36] was > 100 µM (inactive). The GI50 [37] was > 100 µM (inactive), the GI50 [38] was > 100 µM (inactive) and the GI50 [39] was > 100 µM (inactive). The GI50 [40] was > 100 µM (inactive).

With `COc1ccc(NC(=O)C2C(=O)N(c3ccc(OC)cc3)C(=O)/C2=N\NC(N)=O)cc1` (centres undefined) the GI50 [41] was 22.1 µM (inactive), the GI50 [1] was 20.2 µM (inactive) and the GI50 [42] was 97.5 µM (inactive). The GI50 [2] was 39.9 µM (inactive), the GI50 [3] was 23.9 µM (inactive) and the GI50 [4] was 34 µM (inactive). The GI50 [6] was 19.7 µM (inactive), the GI50 [43] was > 100 µM (inactive) and the GI50 [44] was 40.6 µM (inactive). The GI50 [7] was 25.7 µM (inactive), the GI50 [8] was 21.8 µM (inactive) and the GI50 [45] was 18.5 µM (inactive). The GI50 [9] was 56.1 µM (inactive), the GI50 [10] was 22.5 µM (inactive) and the GI50 [11] was greater than 100 µM. The GI50 [12] was 46.9 µM (inactive), the GI50 [13] was 20.3 µM (inactive) and the GI50 [14] was > 100 µM (inactive). For the same compound, the GI50 [15] was 98.9 µM (inactive), the GI50 [46] was 31.3 µM (inactive) and the GI50 [16] was 40.9 µM (inactive). The GI50 [17] was 17.8 µM (inactive), the GI50 [19] was 59.7 µM (inactive) and the GI50 [47] was > 100 µM (inactive). For the same compound, the GI50 [21] was 27.6 µM (inactive), the GI50 [22] was 58.6 µM (inactive) and the GI50 [48] was 21.5 µM (inactive). For the same compound, the GI50 [23] was 34.1 µM (inactive), the GI50 [49] was 27.7 µM (inactive) and the GI50 [25] was 19.4 µM (inactive). For the same compound, the GI50 [26] was 43.6 µM (inactive), the GI50 [27] was 16.8 µM (inactive) and the GI50 [28] was 21.2 µM (inactive). The GI50 [29] was > 100 µM (inactive), the GI50 [50] was 30.9 µM (inactive) and the GI50 [30] was 65.8 µM (inactive). The GI50 [31] was 16.6 µM (inactive), the GI50 [32] was 22.1 µM (inactive) and the GI50 [33] was 21.2 µM (inactive). The GI50 [34] was 38.9 µM (inactive), the GI50 [51] was 45.6 µM (inactive) and the GI50 [52] was > 100 µM (inactive). For the same compound, the GI50 [35] was 63.7 µM (inactive), the GI50 [53] was 16.3 µM (inactive) and the GI50 [54] was 49.5 µM (inactive). The GI50 [37] was 92.5 µM (inactive), the GI50 [38] was 37.1 µM (inactive) and the GI50 [39] was 57.1 µM (inactive). For the same compound, the GI50 [55] was 41.1 µM (inactive) and the GI50 [40] was 20.6 µM (inactive).

With `O=C1/C(=C/c2ccc3c(c2)OCCO3)CCC/C1=C\c1ccc2c(c1)OCCO2` the GI50 [41] was 83.8 µM (inactive), the GI50 [1] was 26.2 µM (inactive) and the GI50 [42] was 32.9 µM (inactive). The GI50 [2] was 37.5 µM (inactive), the GI50 [3] was 36.9 µM (inactive) and the GI50 [4] was 20.3 µM (inactive). The GI50 [5] was 23.8 µM (inactive), the GI50 [6] was 32.8 µM (inactive) and the GI50 [43] was 16.1 µM (inactive). The GI50 [44] was 51.3 µM (inactive), the GI50 [7] was 29 µM (inactive) and the GI50 [45] was 14.2 µM (inactive). For the same compound, the GI50 [10] was 20 µM (inactive), the GI50 [11] was 24.5 µM and the GI50 [12] was 20.1 µM (inactive). The GI50 [13] was 6.21 µM (inactive), the GI50 [15] was 25.7 µM (inactive) and the GI50 [46] was 32.1 µM (inactive). For the same compound, the GI50 [17] was 25.6 µM (inactive), the GI50 [18] was 29.9 µM (inactive) and the GI50 [19] was 24.3 µM (inactive). For the same compound, the GI50 [20] was 12.3 µM (inactive), the GI50 [47] was 15.6 µM (inactive) and the GI50 [21] was 39.9 µM (inactive). The GI50 [22] was 6.9 µM (inactive), the GI50 [48] was 22.9 µM (inactive) and the GI50 [23] was 21.1 µM (inactive). The GI50 [24] was 18.2 µM (inactive), the GI50 [49] was 82.4 µM (inactive) and the GI50 [25] was 15.9 µM (inactive). The GI50 [26] was 8.99 µM (inactive), the GI50 [27] was 19.2 µM (inactive) and the GI50 [28] was 2.53 µM (inactive). The GI50 [56] was 23.8 µM (inactive), the GI50 [29] was 18.2 µM (inactive) and the GI50 [50] was 18.1 µM (inactive). For the same compound, the GI50 [30] was 8.41 µM (inactive), the GI50 [31] was 23 µM (inactive) and the GI50 [57] was 15.8 µM (inactive). The GI50 [32] was 27.7 µM (inactive), the GI50 [33] was 23.9 µM (inactive) and the GI50 [34] was 22.8 µM (inactive). For the same compound, the GI50 [51] was 35.4 µM (inactive), the GI50 [52] was 39.3 µM (inactive) and the GI50 [53] was 33.3 µM (inactive). The GI50 [36] was 20.5 µM (inactive), the GI50 [54] was 10.8 µM (inactive) and the GI50 [37] was 19 µM (inactive). For the same compound, the GI50 [38] was 17 µM (inactive), the GI50 [39] was 26.8 µM (inactive) and the GI50 [55] was 34.8 µM (inactive). The GI50 [40] was 24.9 µM (inactive).

With `CCN(CC)CCNc1ccc2ncn3c4ccccc4c(=O)c1c23` the GI50 [41] was 2.45 µM (inactive), the GI50 [1] was 3.99 µM (inactive) and the GI50 [42] was 7.93 µM (inactive). For the same compound, the GI50 [2] was 3.77 µM (inactive), the GI50 [3] was 7.41 µM (inactive) and the GI50 [4] was 12.8 µM (inactive). The GI50 [5] was 2.85 µM (inactive), the GI50 [6] was 3.83 µM (inactive) and the GI50 [43] was 4.59 µM (inactive). The GI50 [7] was 3.63 µM (inactive), the GI50 [8] was 2.18 µM (inactive) and the GI50 [45] was 4.52 µM (inactive). For the same compound, the GI50 [9] was 7.06 µM (inactive), the GI50 [11] was 3.96 µM and the GI50 [12] was 4.23 µM (inactive). The GI50 [13] was 5.2 µM (inactive), the GI50 [14] was 8.49 µM (inactive) and the GI50 [15] was 5.36 µM (inactive). The GI50 [46] was 2.28 µM (inactive), the GI50 [16] was 5.01 µM (inactive) and the GI50 [17] was 3.52 µM (inactive). For the same compound, the GI50 [18] was 4.1 µM (inactive), the GI50 [19] was 4.12 µM (inactive) and the GI50 [20] was 5.74 µM (inactive). The GI50 [47] was 1.87 µM (inactive), the GI50 [21] was 2.24 µM (inactive) and the GI50 [22] was 2.2 µM (inactive). The GI50 [48] was 3.43 µM (inactive), the GI50 [23] was 2.96 µM (inactive) and the GI50 [24] was 3.63 µM (inactive). For the same compound, the GI50 [49] was 2.08 µM (inactive), the GI50 [25] was 2.77 µM (inactive) and the GI50 [27] was 5.86 µM (inactive). The GI50 [28] was 0.916 µM (active), the GI50 [56] was 1.63 µM (inactive) and the GI50 [29] was 2.52 µM (inactive). For the same compound, the GI50 [30] was 1.64 µM (inactive), the GI50 [31] was 3.91 µM (inactive) and the GI50 [57] was 3.5 µM (inactive). The GI50 [32] was 6.7 µM (inactive), the GI50 [33] was 10 µM (inactive) and the GI50 [34] was 2.26 µM (inactive). For the same compound, the GI50 [51] was 2.26 µM (inactive), the GI50 [52] was 2.06 µM (inactive) and the GI50 [35] was 5.07 µM (inactive). For the same compound, the GI50 [53] was 5.81 µM (inactive), the GI50 [36] was 2 µM (inactive) and the GI50 [54] was 3.85 µM (inactive). The GI50 [37] was 4.91 µM (inactive), the GI50 [38] was 3.58 µM (inactive) and the GI50 [39] was 3.03 µM (inactive). The GI50 [55] was 9.84 µM (inactive).
